Data: patent publication US20100292222A1, “CHEMICAL COMPOUNDS 751” (ASTRAZENECA AB, priority 2009, published 2010)

The molecules below were run against T1, Androgen Receptor (AR) (Homo sapiens, UniProt P10275, T878A) (assay: LNCaP Androgen Receptor Down-Regulation Cell Assay). Settings: LNCaP prostate carcinoma cell line; 20-22 hours incubation; immunofluorescence; 50% reduction of the AR signal.
T1 construct: cell based immuno-fluorescence assay using the LNCaP prostate epithelial cell line; host or cells: LNCaP clone FGC prostate carcinoma cells
T1 sequence (P10275 1-920 T878A): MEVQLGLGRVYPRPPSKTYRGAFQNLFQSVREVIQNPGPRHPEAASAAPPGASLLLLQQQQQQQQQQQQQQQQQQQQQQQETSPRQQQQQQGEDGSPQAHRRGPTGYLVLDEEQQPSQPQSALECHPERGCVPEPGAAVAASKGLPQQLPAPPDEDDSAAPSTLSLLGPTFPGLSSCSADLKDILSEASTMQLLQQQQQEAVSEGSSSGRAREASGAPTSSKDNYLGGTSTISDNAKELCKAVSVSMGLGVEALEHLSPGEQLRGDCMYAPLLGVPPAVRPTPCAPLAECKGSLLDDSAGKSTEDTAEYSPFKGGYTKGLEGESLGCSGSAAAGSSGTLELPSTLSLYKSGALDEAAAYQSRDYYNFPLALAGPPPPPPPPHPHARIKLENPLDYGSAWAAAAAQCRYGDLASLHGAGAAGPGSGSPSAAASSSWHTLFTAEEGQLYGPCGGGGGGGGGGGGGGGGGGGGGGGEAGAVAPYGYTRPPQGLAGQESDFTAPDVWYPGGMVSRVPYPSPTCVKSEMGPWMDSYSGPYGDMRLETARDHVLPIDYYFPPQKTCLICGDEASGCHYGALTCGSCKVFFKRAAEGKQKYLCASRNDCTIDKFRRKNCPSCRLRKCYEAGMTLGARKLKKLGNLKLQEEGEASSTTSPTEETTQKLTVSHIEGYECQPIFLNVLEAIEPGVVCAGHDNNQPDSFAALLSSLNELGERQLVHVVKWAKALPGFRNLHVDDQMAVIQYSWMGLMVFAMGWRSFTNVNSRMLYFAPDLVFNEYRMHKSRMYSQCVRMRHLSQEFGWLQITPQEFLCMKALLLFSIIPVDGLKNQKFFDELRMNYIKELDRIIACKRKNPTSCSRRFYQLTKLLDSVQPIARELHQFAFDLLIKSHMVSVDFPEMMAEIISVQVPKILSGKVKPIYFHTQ
Assay type: cell-based
Method: The ability of compounds to reduce Androgen Receptor (AR) numbers was assessed in a cell based immuno-fluorescence assay using the LNCaP prostate epithelial cell line.
This immunofluorescence end point assay measures the ability of a test compound to down-regulate and reduce measured levels of the AR in the LNCaP prostate carcinoma cell line (LNCaP clone FGC (CRL-1740) obtained from the American Type Culture Collection (ATCC)).
LNCaP cells were cultured in Growth Medium (phenol red free Roswell Park Memorial Institute (RPMI) 1640 (Invitrogen Code no. 11835-063) containing 2 mM L-Glutamine (Invitrogen Code no. 25030-024) and 1% (v/v) Penicillin/Streptomycin (10000 units/ml Penicillin and 10000 μg/ml of Streptomycin utilising penicillin G (sodium salt) and streptomycin sulphate: prepared in normal saline, Invitrogen Code no. 15140122) and 10% (v/v) foetal bovine serum (FBS)) in a 5% CO2 air incubator at 37° C. Cells for assay were harvested from T175 stock flasks by washing once in PBS (phosphate buffered saline, pH 7.4) (Invitrogen Code no. 14190-094) and harvested using 5 mls of 1× Trypsin/ethylaminediaminetetraacetic acid (EDTA) (10× Trypsin-EDTA, 5.0 g/L Trypsin, 2.0 g/L of EDTA•4Na and 8.5 g/L of NaCl, without Phenol Red, Invitrogen Code no. 15400-054) diluted in PBS solution. A 5 ml volume of Growth Medium was added to each flask (as above except that 5% (v/v) charcoal stripped FBS (HyClone Code no. SH30068.03) was included instead of 10% (v/v) FBS). Cells were syringed at least twice using a sterile 18G×1.5″ (1.2×40 mm) broad gauge needle and cell density was measured using a haemocytometer. Cells were further diluted in Growth Medium plus 5% (v/v) charcoal stripped FBS and seeded at a density of 6.5×10^3 cells per well (in 90 ul) into transparent, black, tissue culture treated 96 well plates (Packard, No. 6005182).
Test data reported herein was generated using two different compounds preparation and dosing methods. In method (1) a 10 mM compound stock solution in 100% (v/v) DMSO was serially diluted in 4-fold steps in 100% (v/v) DMSO using a Thermo Scientific Matrix SerialMate. The diluted compounds were then further diluted 1 in 30 in assay media using a Thermo Scientific Matrix PlateMate and a 10 μl aliquot of this dilution was dosed to cells manually using a multi-channel pipette. In method (2) starting with a 10 mM compound stock solution, the Labcyte Echo 550 was used to generate a compound concentration response set diluted in 30 μl of assay media. The Echo 550 is a liquid handler that uses acoustic technology to perform direct microplate-to-microplate transfers of DMSO compound solutions. The system can be programmed to transfer volumes as low as […] in multiple increments between microplates and in so doing generates a serial dilution of compound which is then back-filled to normalise the DMSO is concentration across the dilution range. A 10 μl volume of diluted compound is then dosed to cells using a Thermo Scientific Matrix PlateMate.
Plates were incubated overnight at 37° C., 5% CO2. Wells were then dosed with compound prepared by one of the 2 methods above and further incubated for 20-22 hours at 37° C., 5% CO2. Plates were fixed by the addition of 20 μl of 10% (v/v) formaldehyde solution (in PBS) to each well (final formaldehyde conc.=1.67% (v/v)) and left at room temperature for 10 mins. This fixative solution was removed and cells were washed with 250 μl of PBS/0.05% (v/v) Tween 20 (PBST) using an automated plate washer. This process was then repeated twice more.
Immunostaining was performed at room temperature. Cells were permeabilised by the addition of 35 μl of PBS containing 0.5% Tween 20 and incubated for 1 hour at room temperature. Permeabilisation solution was removed and cells were washed with 250 μl of PBST using an automated plate washer. This process was then repeated twice more. […]

| Compound | IC50 [nM] |
| --- | --- |
| CCN1CCN(CCCOc2ccc(C3CCN(c4ccc5nnc(C(F)(F)F)n5n4)CC3)cc2)CC1=O [Example 15, 1-ethyl-4-[3-(4-{1-[3-(trifluoromethyl)[1,2,4]triazolo[4,3-b]pyridazin-6-yl]piperidin-4-yl}phenoxy)propyl]piperazin-2-one] | 240 |
| CC(C)N1CCN(CCCOc2ccc(C3CCN(c4ccc5nnc(C(F)(F)F)n5n4)CC3)cc2)CC1=O [Example 16, 1-(1-methylethyl)-4-[3-(4-{1-[3-(trifluoromethyl)[1,2,4]triazolo[4,3-b]pyridazin-6-yl]piperidin-4-yl}phenoxy)propyl]piperazin-2-one] | 610 |
| CN1CCN(CCOc2ccc(C3CCN(c4ccc5nnc(C(F)(F)F)n5n4)CC3)cc2)CC1=O [Example 2, 1-methyl-4-[2-(4-{1-[3-(trifluoromethyl)[1,2,4]-triazolo[4,3-b]pyridazin-6-yl]piperidin-4-yl}phenoxy)ethyl]piperazin-2-one] | 310 |
| CC(=O)N1CCN([C@H](C)COc2ccc(C3(O)CCN(c4ccc5nnc(C(F)(F)F)n5n4)CC3)cc2)CC1 (single isomer, unassigned) [Example 44, 4-{4-[2-(4-acetylpiperazin-1-yl)propoxy]phenyl}-1-[3-(trifluoromethyl)[1,2,4]triazolo[4,3-b]pyridazin-6-yl]piperidin-4-ol] | 36 |
| CC(=O)N1CCCN([C@H](C)COc2ccc(C3(O)CCN(c4ccc5nnc(C(F)(F)F)n5n4)CC3)cc2)CC1 (single isomer, unassigned) [Example 46, 4-{4-[2-(4-acetyl-1,4-diazepan-1-yl)propoxy]phenyl}-1-[3-(trifluoromethyl)[1,2,4]triazolo[4,3-b]pyridazin-6-yl]piperidin-4-ol] | 18 |
| CC(=O)N1CCN(C[C@H](C)Oc2ccc(C3CCN(c4ccc5nnc(C(F)(F)F)n5n4)CC3)cc2)CC1 [Example 27, 6-(4-{4-[(1S)-2-(4-acetylpiperazin-1-yl)-1-methylethoxy]phenyl}piperidin-1-yl)-3-(trifluoromethyl) [1,2,4]triazolo[4,3-b]pyridazine] | 880 |
| COCCN1CCN(CCOc2ccc(C3CCN(c4ccc5nnc(C(F)(F)F)n5n4)CC3)cc2)CC1=O [Example 20, 1-(2-methoxyethyl)-4-[2-(4-{1-[3-(trifluoromethyl)[1,2,4]triazolo[4,3-b]pyridazin-6-yl]piperidin-4-yl}phenoxy)ethyl]piperazin-2-one] | 570 |
| CC(=O)N1CCN(CCOc2ccc(C3(O)CCN(c4ccc5nnc(C(F)(F)F)n5n4)CC3)c(F)c2)CC1 [Example 35, 4-{4-[2-(4-acetylpiperazin-1-yl)ethoxy]-2-fluorophenyl}-1-[3-(trifluoromethyl)[1,2,4]-triazolo[4,3-b]pyridazin-6-yl]piperidin-4-ol] | 140 |
| CC(=O)N1CCN(CCOc2ccc(C3(O)CCN(c4ccc5nnc(C(F)(F)F)n5n4)CC3)c(C)c2)CC1 [Example 30, 4-{4-[2-(4-acetylpiperazin-1-yl)ethoxy]-2-methylphenyl}-1-[3-(trifluoromethyl)[1,2,4]-triazolo[4,3-b]pyridazin-6-yl]piperidin-4-ol] | 210 |
| CC(=O)N1CCN(C[C@@H](C)Oc2ccc(C3CCN(c4ccc5nnc(C(F)(F)F)n5n4)CC3)cc2)CC1 [Example 26, 6-(4-{4-[(1R)-2-(4-acetylpiperazin-1-yl)-1-methylethoxy]phenyl}piperidin-1-yl)-3-(trifluoromethyl)[1,2,4]triazolo[4,3-b]pyridazine] | 160 |
| CN1CCN(CCOc2ccc(C3CCN(c4ccc5nnc(C(F)(F)F)n5n4)CC3)cc2F)CC1=O [Example 13, 4-[2-(2-fluoro-4-{1-[3-(trifluoromethyl)[1,2,4]triazolo[4,3-b]pyridazin-6-yl]piperidin-4-yl}phenoxy)ethyl]-1-methylpiperazin-2-one] | 310 |
| CC(=O)N1CCCN([C@H](C)COc2ccc(C3(O)CCN(c4ccc5nnc(C(F)(F)F)n5n4)CC3)cc2)CC1 (single isomer, unassigned) [Example 45, 4-{4-[2-(4-acetyl-1,4-diazepan-1-yl)propoxy]phenyl}-1-[3-(trifluoromethyl)[1,2,4]triazolo[4,3-b]pyridazin-6-yl]piperidin-4-ol] | 82 |
| CC(=O)N1CCN(CCOc2ccc(C3(O)CCN(c4ccc5nnc(C(F)(F)F)n5n4)CC3)cc2)C[C@H]1C [Example 39, 4-(4-{2-[(3R)-4-acetyl-3-methylpiperazin-1-yl]ethoxy}phenyl)-1-[3-(trifluoromethyl) [1,2,4]triazolo[4,3-b]pyridazin-6-yl]piperidin-4-ol] | 71 |
| CN1CCN(CCOc2ccc(C3CCN(c4ccc5nnc(C(F)(F)F)n5n4)CC3)cn2)CC1=O [Example 11, 1-methyl-4-{2-[(5-{1-[3-(trifluoromethyl)[1,2,4]triazolo[4,3-b]pyridazin-6-yl]piperidin-4-yl}pyridin-2-yl)oxy]ethyl}piperazin-2-one] | 1600 |
| O=C1CN(CCOc2ccc(N3CCN(c4ccc5nnc(C(F)(F)F)n5n4)CC3)cc2)CCN1C1CC1 [Example 5, 1-cyclopropyl-4-[2-(4-{4-[3-(trifluoromethyl)[1,2,4]-triazolo[4,3-b]pyridazin-6-yl]piperazin-1-yl}phenoxy)ethyl]piperazin-2-one] | 7800 |
| CC(=O)N1CCN(CCOc2ccc(C3(O)CCN(c4ccc5nnc(C(F)(F)F)n5n4)CC3)cc2)C[C@@H]1C [Example 40, 4-(4-{2-[(3S)-4-acetyl-3-methylpiperazin-1-yl]ethoxy}phenyl)-1-[3-(trifluoromethyl) [1,2,4]triazolo[4,3-b]pyridazin-6-yl]piperidin-4-ol] | 63 |
| CN1CCN(CCOc2ccc(N3CCN(c4ccc5nnc(C(F)(F)F)n5n4)CC3)cc2)C(=O)C1 [Example 7, 4-methyl-1-[2-(4-{4-[3-(trifluoromethyl)[1,2,4]-triazolo[4,3-b]pyridazin-6-yl]piperazin-1-yl}phenoxy)ethyl]piperazin-2-one] | 6500 |
